Results from patent publication US20100056524A1, “Compound” (priority 2008, published 2010).
Structures can show the parent of a compound that is named as a salt. Where two headings read alike, the source gives them in different places.

How the values were obtained:
Format in all cases: biochemical
ERK8 = target: T1, ERK8 (Homo sapiens, UniProt Q8TD08); experiment: ERK8 protein kinase assay; settings: for remaining activity at 10 µM: 10 μM compound; for residual kinase activity ERK8: 1 μm compound; for remaining activity at 1 µM: 1 μM compound
T1 construct: All protein kinases were of human origin and encoded full length proteins, unless indicated otherwise; His6; made in house; host or cells: insect Sf21 cells
T1 sequence (Q8TD08 1-544): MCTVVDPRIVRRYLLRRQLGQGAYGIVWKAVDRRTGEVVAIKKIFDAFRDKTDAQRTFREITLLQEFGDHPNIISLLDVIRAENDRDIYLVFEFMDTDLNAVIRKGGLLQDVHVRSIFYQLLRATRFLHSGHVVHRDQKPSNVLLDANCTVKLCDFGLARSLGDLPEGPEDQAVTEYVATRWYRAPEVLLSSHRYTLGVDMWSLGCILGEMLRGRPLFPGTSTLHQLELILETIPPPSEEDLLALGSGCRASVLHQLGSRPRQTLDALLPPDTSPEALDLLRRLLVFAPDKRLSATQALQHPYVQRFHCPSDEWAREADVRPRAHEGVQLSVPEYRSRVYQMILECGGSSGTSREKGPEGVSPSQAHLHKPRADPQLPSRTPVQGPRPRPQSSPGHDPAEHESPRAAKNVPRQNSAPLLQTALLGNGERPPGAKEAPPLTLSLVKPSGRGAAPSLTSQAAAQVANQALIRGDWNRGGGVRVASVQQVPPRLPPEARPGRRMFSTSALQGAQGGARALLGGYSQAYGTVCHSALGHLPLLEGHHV
Description: (§1) All protein kinases were of human origin and encoded full length proteins, unless indicated otherwise. They were either expressed as glutathione S-transferase (GST) fusion proteins in Escherichia Coli or as hexahistidine (His6)-tagged proteins in insect Sf21 cells. GST fusion proteins were purified by affinity chromatography on glutathione-Sepharose, and His6-tagged proteins on nickel/nitriloacetate-agarose. The procedures for expressing some of the protein kinases used herein have been detailed previously.^8,9 The following sections outline the DNA vectors synthesised and the procedures used to express and purifying protein kinases that have not been reported previously.
The following kinases were expressed in Sf21 cells: Aurora B and Aurora C, extra-cellular signal-regulated kinase 8 (ERK8), microtubule affinity regulating kinase 3 (MARK3), protein kinase Bα[118-480][S473D], protein kinase Bβ (PKBβ[120-481][S474D], 3-phosphoinositide-dependent protein kinase-1 [52-556]
(§2) All assays (25.5 μl) were carried out at room temperature (21° C.) and were linear with respect to time and enzyme concentration under the conditions used. Assays were performed for 30 min using Multidrop Micro reagent dispensers (Thermo Electron Corporation, Waltham, Mass. 02454, USA) in a 96-well format. The concentration of magnesium acetate in the assays was 10 mM and the [γ-33P] ATP (800 cpm/pmol) was used at 5, 20 or 50 μM as indicated, in order to be at or below the Km for ATP for each enzyme. Protein kinases assayed at 5 μM ATP were: —ERK1, ERK8, PKBα, MARK3, Aurora C. Protein kinases assayed at 20 μM ATP were: —JNK1, PDK1, CHK1, CHK2, CDK2 and Aurora B. Protein kinases assayed at 50 μM ATP were: —MNK2, IKKepsilon and TBK1.
(§3) The assays were initiated with MgATP, stopped by addition of 5 μl of 0.5 M orthophosphoric acid and spotted on to P81 filterplates using a unifilter harvester (PerkinElmer, Boston, Mass. 02118, USA). The IC50 values of inhibitors were determined after carrying out assays at 10 different concentrations of each compound.
ERK1 and ERK8 were both assayed against myelin basic protein (MBP, 0.33 mg/ml). MARK3 was assayed against the peptide […] (300 μM), MNK2 against the eIF4E protein (0.5 mg/ml). PKBβ was assayed against the peptide […] (30 μM). TBK1 were assayed against ([…]) (300 μM). The substrates used for other protein kinases were described previously.^8,9
(§4) Unless stated otherwise, enzymes were diluted in 50 mM Tris/HCl pH 7.5, 0.1 mM EGTA, 1 mg/ml BSA, 0.1% (v/v) 2-mercaptoethanol and assayed in 50 mM Tris/HCl pH 7.5, 0.1 mM EGTA, 0.1% (v/v) 2-mercaptoethanol.

SGK1 = target: T2, SGK1 (Homo sapiens, UniProt O00141, S422D); experiment: SGK1 protein kinase assay; settings: for remaining activity at 10 µM: 10 μM compound; for residual kinase activity SGK1: 1 μm compound; for remaining activity at 1 µM: 1 μM compound
T2 construct: All protein kinases were of human origin and encoded full length proteins, unless indicated otherwise; made in house
T2 sequence (O00141 60-431 S422D limits assumed): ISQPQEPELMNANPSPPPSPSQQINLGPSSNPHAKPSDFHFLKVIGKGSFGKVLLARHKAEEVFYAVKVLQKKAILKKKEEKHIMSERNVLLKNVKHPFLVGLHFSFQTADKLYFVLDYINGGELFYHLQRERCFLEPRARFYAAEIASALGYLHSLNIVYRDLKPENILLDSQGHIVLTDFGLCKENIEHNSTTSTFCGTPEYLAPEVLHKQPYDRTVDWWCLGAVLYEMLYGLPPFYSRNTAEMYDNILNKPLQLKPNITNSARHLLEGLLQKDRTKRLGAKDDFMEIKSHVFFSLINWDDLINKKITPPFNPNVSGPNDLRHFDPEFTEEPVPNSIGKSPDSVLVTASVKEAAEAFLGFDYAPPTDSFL
Description: as §1, §2, §3, §4

CHK2 = target: T3, CHK2 (Homo sapiens, UniProt O96017); experiment: CHK2 protein kinase assay; settings: for remaining activity at 10 µM: 10 μM compound; for residual kinase activity CHK2: 1 μm compound; for remaining activity at 1 µM: 1 μM compound
T3 construct: The following proteins were expressed in E. coli: —CHK2[5-543]; GST; made in house; host or cells: E. coli
Description: as §1
The following proteins were expressed in E. coli: —CHK2[5-543], cyclin-dependent protein kinase 2 (CDK2), MAP kinase-interacting kinase 2 (MNK2), extra-cellular signal-regulated kinase 1 (ERK1).
as §2, §3, §4

[1] = read-out: residual kinase activity ERK8
[2] = read-out: residual kinase activity SGK1
[3] = read-out: residual kinase activity CHK2
[4] = ERK8, 5 μM ATP, read-out: residual kinase activity
[5] = SGK1, read-out: residual kinase activity
[6] = CHK2, 20 μM ATP, read-out: residual kinase activity

T3 sequence (O96017 5-543): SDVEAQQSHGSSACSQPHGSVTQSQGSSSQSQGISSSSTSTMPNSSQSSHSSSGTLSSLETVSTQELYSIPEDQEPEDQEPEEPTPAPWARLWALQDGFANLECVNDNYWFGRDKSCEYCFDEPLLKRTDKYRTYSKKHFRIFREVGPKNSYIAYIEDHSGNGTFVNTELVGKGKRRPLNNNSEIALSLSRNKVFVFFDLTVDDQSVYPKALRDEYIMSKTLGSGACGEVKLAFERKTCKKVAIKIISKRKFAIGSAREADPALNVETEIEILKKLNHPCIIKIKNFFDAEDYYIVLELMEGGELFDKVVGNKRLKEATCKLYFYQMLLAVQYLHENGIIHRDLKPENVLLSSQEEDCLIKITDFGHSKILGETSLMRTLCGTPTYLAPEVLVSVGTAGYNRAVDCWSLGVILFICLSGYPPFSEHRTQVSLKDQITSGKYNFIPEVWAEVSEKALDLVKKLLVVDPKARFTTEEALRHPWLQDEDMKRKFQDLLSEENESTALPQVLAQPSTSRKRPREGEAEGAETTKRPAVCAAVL

SMILES | remaining activity at 10 µM (ERK8; [1]) [%] | residual kinase activity ERK8 (ERK8) [%] | remaining activity at 10 µM (SGK1; [2]) [%] | residual kinase activity SGK1 (SGK1) [%] | remaining activity at 10 µM (CHK2; [3]) [%] | residual kinase activity CHK2 (CHK2) [%] | remaining activity at 1 µM (ERK8; [4]) [%] | remaining activity at 10 µM (ERK8; [4]) [%] | remaining activity at 1 µM (SGK1; [5]) [%] | remaining activity at 10 µM (SGK1; [5]) [%] | remaining activity at 1 µM (CHK2; [6]) [%] | remaining activity at 10 µM (CHK2; [6]) [%]
O=C(NCCCNc1nc(Nc2cccc(F)c2)ncc1Br)C1CCC1 [Compound A, cyclobutanecarboxylic acid {3-[5-bromo-2-(3-fluoro-phenylamino)-pyrimidin-4-ylamino]-propyl}-amide, reference compound] | 3 | 9 | 18 | 59 | 12 | 13 | – | – | – | – | – | –
O=C(NCCCNc1nc(Nc2cccc(F)c2)ncc1C1CC1)C1CCC1 [Example 23, Cyclobutanecarboxylic acid {3-[5-cyclopropyl-2-(3-fluoro-phenylamino)-pyrimidin-4-ylamino]-propyl}-amide] | 6 | 14 | 64 | 100 | 11 | 50 | 14 | 6 | 100 | 64 | 50 | 11
O=C(NCCCNc1nc(Nc2cccc(N3CCCC3=O)c2)ncc1C1CC1)c1cccs1 [Example 47, Thiophene-2-carboxylic acid (3-{5-cyclopropyl-2-[3-(2-oxo-pyrrolidin-1-yl)-phenylamino]-pyrimidin-4-ylamino}-propyl)-amide. Hydrochloride salt] | – | – | – | – | – | – | 33 | 10 | 71 | 59 | 71 | 28
O=C(NCCCNc1nc(Nc2cccnc2)ncc1C1CC1)c1cccs1 [Example 50, Thiophene-2-carboxylic acid {3-[5-cyclopropyl-2-(pyridin-3-ylamino)-pyrimidin-4-ylamino]-propyl}-amide] | – | – | – | – | – | – | 13 | 5 | 86 | 57 | 52 | 16
